{
  "source": "patent US10322123B2",
  "about": "“Compound for anti-cancer therapy that acts by targeting GOF mutant P53 and stimulates P73 to restore the P53 pathway signaling” (The Penn State Research Foundation, priority 2014, dated 2019)",
  "key": {"mutant p53": {"tested_on": "mutant p53", "type": "cell-based, human", "description": "(§1) The primary antibodies indicated in the figures were incubated with the transferred PVDF in blocking buffer at 4° C. overnight. Antibody binding was detected on PVDF with appropriate IRDye-secondary antibodies (LI-COR Biosciences, USA) by the ODYSSEY infrared imaging system."}, "p21, Puma, DR5 and Noxa": {"tested_on": "p21, Puma, DR5 and Noxa", "assay": "Western blot of p53 target gene proteins", "type": "cell-based, human", "description": "as §1, with “Proteins were extracted from cells and electrophoresed through 4-12% SDS-PAGE then transferred to PVDF membranes. The” for “The”"}, "[1]": {"tested_on": "p73 knock-down DLD-1 xenograft tumors", "assay": "In vivo anti-tumor assay, xenograft", "parameters": "species or system mice", "details": "45 mg/kg i.p. every 5 days", "description": "(§2) CRL nude mice (female, 4-6 weeks old) were inoculated s.c. in the opposite flanks with 5 million DLD-1 or p73 knock-down DLD-1 cells in an equal volume of martrigel. Treatment with NSC59984 (i.p. injection) was initiated when the tumor masses reached a size of 3-5 mm. NSC59984 (45 mg/kg) was injected by i.p. route every 5 days. Fifteen days after treatment, the mice were euthanized using an institutional animal care and use committee-approved animal protocol."}, "DLD-1 xenograft tumors": {"tested_on": "DLD-1 xenograft tumors", "assay": "In vivo anti-tumor assay, xenograft", "parameters": "species or system mice", "details": "45 mg/kg i.p. every 5 days", "description": "as §2"}, "[2]": {"tested_on": "Wi38 normal fibroblast cells", "assay": "CellTiter-Glo cell viability, combination with CPT-11", "type": "cell-based, human", "details": "for Combination index (CI): Wi38, 72 hr", "description": "Cells at a concentration of 5000 cells/well in 96-well plates were treated with NSC59984 or other drugs. At seventy-two hours after treatment, cells were mixed with an equal volume of CellTiter-Glo reagents (Promega, Madison, Wis.), following the manufacturer's protocol, and bioluminescence imaging was measured using the IVIS imager.\nAll results were obtained from triplicate experiments, unless other indicated. Statistical analyses were performed using PRISM4 Software (GraphPad Software, Inc., San Diego, Calif., USA), ANOVA and Student's t-test. Statistical significances were determined by p<0.05. Combination indices were calculated using the Chou-Talalay method with CalcuSyn software (biosoft)."}, "p21, Puma and Noxa mRNA": {"tested_on": "p21, Puma and Noxa mRNA", "assay": "qRT-PCR of p53 target gene mRNA", "type": "cell-based, human", "excerpt": "Total RNA was isolated from cells using RNeasy mini kit (Qiagen, USA) by the recommended protocol. Reverse transcription used SuperScript II first-strand synthesis system (Invitrogen, USA) with random primers. qRT-PCR reactions used SYBR green master mix with the Real-Time PCR Detection systems (Bio-Rad, USA). Primers for qRT-PCR are (forward) 5′-[…]-3′ (SEQ ID NO: 1) and (reverse) 5′-[…]-3′ (SEQ ID NO: 2) for p53, (forward) 5′-TGTCCGTCAGAACCCATG-3′ (SEQ ID NO: 3) and (reverse) 5′-[…]-3′ (SEQ ID NO: 4) for p21, (forward) 5′-[…]-3′ (SEQ ID NO: 5) and (reverse) 5′-[…]-3′ (SEQ ID NO: 6) for Puma, (forward) 5′-[…]-3′ (SEQ ID NO: 7) and (reverse) 5′-[…]-3′ (SEQ ID NO: 8) for Noxa, (forward) 5′-CTGGGCTACACTGAGCACC-3′ (SEQ ID NO: 9) and (reverse) 5′-[…]-3′ (SEQ ID NO: 10) for Gapdh. Target gene expression levels were normalized with Gapdh."}, "γH2AX": {"tested_on": "γH2AX", "assay": "Genotoxicity measured by γH2AX", "type": "cell-based, human", "description": "as §1, with “Proteins were extracted from cells and electrophoresed through 4-12% SDS-PAGE then transferred to PVDF membranes. The” for “The”"}, "[3]": {"details": "HCT116 and p53-null HCT116 cells"}},
  "data": [
    {"compound": "CN1CCN(C(=O)/C=C/c2ccc([N+](=O)[O-])o2)CC1", "note": "[NSC59984, (E)-1-(4-methylpiperazin-1-yl)-3-(5-nitrofuran-2-yl)prop-2-en-1-one]", "values": [
      {"measurement": "total mutant p53 protein degraded", "setting": "mutant p53; DLD-1 and RXF393 cells, 50 μM", "value": "25-50%"},
      {"measurement": "mutant p53 protein level", "setting": "mutant p53; SW480, DLD-1, Hop92 and RXF393 cells, 8 hr, dose-dependent", "value": "down-regulated"},
      {"measurement": "p21 protein", "setting": "p21, Puma, DR5 and Noxa; [3]", "value": "up-regulated"},
      {"measurement": "protein levels of Puma, DR5 and Noxa", "setting": "p21, Puma, DR5 and Noxa; [3]", "value": "not up-regulated"},
      {"measurement": "protein levels of p21, Puma, Noxa and DR5", "setting": "p21, Puma, DR5 and Noxa; SW480 and DLD-1 cells, increasing doses, 8 hr", "value": "significantly up-regulated"},
      {"measurement": "up-regulation of endogenous p21, Puma, DR5 and Noxa proteins", "setting": "p21, Puma, DR5 and Noxa; p73 knock-down DLD-1 cells, 8 hr", "value": "reduced by p73 knock-down"},
      {"measurement": "tumor growth suppression", "setting": "[1]", "value": "not observed"},
      {"measurement": "tumor weight reduced by", "setting": "[1]; day 15", "value": 18, "unit": "%"},
      {"measurement": "xenograft tumor growth", "setting": "DLD-1 xenograft tumors; compared to DMSO control", "value": "significantly repressed"},
      {"measurement": "tumor weight reduced by", "setting": "DLD-1 xenograft tumors; day 15", "value": 34, "unit": "%"},
      {"measurement": "Combination index (CI)", "setting": "[2]; CPT-11 15 mg/ml, NSC59984 6 mM", "value": "1.50 ± 0.18"},
      {"measurement": "Combination index (CI)", "setting": "[2]; CPT-11 15 mg/ml, NSC59984 12 mM", "value": "1.45 ± 0.12"},
      {"measurement": "Combination index (CI)", "setting": "[2]; CPT-11 15 mg/ml, NSC59984 25 mM", "value": "0.88 ± 0.11"},
      {"measurement": "Combination index (CI)", "setting": "[2]; CPT-11 15 mg/ml, NSC59984 50 mM", "value": "0.03 ± 0.01"},
      {"measurement": "Combination index (CI)", "setting": "[2]; CPT-11 30 mg/ml, NSC59984 6 mM", "value": "1.10 ± 0.14"},
      {"measurement": "Combination index (CI)", "setting": "[2]; CPT-11 30 mg/ml, NSC59984 12 mM", "value": "0.95 ± 0.05"},
      {"measurement": "Combination index (CI)", "setting": "[2]; CPT-11 30 mg/ml, NSC59984 25 mM", "value": "0.20 ± 0.04"},
      {"measurement": "Combination index (CI)", "setting": "[2]; CPT-11 30 mg/ml, NSC59984 50 mM", "value": "0.03 ± 0.00"},
      {"measurement": "Combination index (CI)", "setting": "[2]; CPT-11 60 mg/ml, NSC59984 6 mM", "value": "0.58 ± 0.10"},
      {"measurement": "Combination index (CI)", "setting": "[2]; CPT-11 60 mg/ml, NSC59984 12 mM", "value": "0.44 ± 0.06"},
      {"measurement": "Combination index (CI)", "setting": "[2]; CPT-11 60 mg/ml, NSC59984 25 mM", "value": "0.01 ± 0.00"},
      {"measurement": "Combination index (CI)", "setting": "[2]; CPT-11 60 mg/ml, NSC59984 50 mM", "value": "0.05 ± 0.00"},
      {"measurement": "Combination index (CI)", "setting": "[2]; CPT-11 120 mg/ml, NSC59984 6 mM", "value": "0.96 ± 0.22"},
      {"measurement": "Combination index (CI)", "setting": "[2]; CPT-11 120 mg/ml, NSC59984 12 mM", "value": "0.29 ± 0.04"},
      {"measurement": "Combination index (CI)", "setting": "[2]; CPT-11 120 mg/ml, NSC59984 25 mM", "value": "0.01 ± 0.00"},
      {"measurement": "Combination index (CI)", "setting": "[2]; CPT-11 120 mg/ml, NSC59984 50 mM", "value": "0.11 ± 0.02"},
      {"measurement": "combinational treatment with CPT11", "setting": "[2]; normal fibroblast Wi38 cells", "value": "synergic activity"},
      {"measurement": "Noxa mRNA", "setting": "p21, Puma and Noxa mRNA; 25 μM in HCT116 and 12 μM in p53-null HCT116 cells", "value": "slightly increased"},
      {"measurement": "Puma and p21 mRNA level", "setting": "p21, Puma and Noxa mRNA; [3]", "value": "not up-regulated"},
      {"measurement": "mRNA levels of p21, Noxa and Puma", "setting": "p21, Puma and Noxa mRNA; SW480 and DLD-1 cells, 3 hours, dose-dependent", "value": "significantly increased"},
      {"measurement": "γH2AX", "setting": "γH2AX; HCT116 cells, 8 hours, 12 μM", "value": "increase of γH2AX"},
      {"measurement": "γH2AX", "setting": "γH2AX; SW480 and DLD-1 cancer cells, within 24 hr, up to 50 μM", "value": "No γH2AX was found"}
    ]}
  ]
}
